Assay results reported in PubChem BioAssay AID330 (DTP/NCI, 2004).
“And” between values parts separate entries of the source, which are not always exact repeats. Equal entries are not always repeated. Toxic doses and inconclusive results are not listed. Rule for the calls: active = survival T/C of 150% or more; inactive = T/C below 125% in these data.

Tested on: P388 leukemia ip, CD2F1 mice, survival T/C
Experiment: NCI In Vivo Anticancer Drug Screen. Data for tumor model P388 Leukemia (intraperitoneal) in CD2F1 (CDF1) mice
Settings: endpoint: median survival time, higher = longer survival
Procedure, shortened: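 Mice carrying the transplanted tumor received test compound or vehicle. Survival was recorded in each group, and the value is the treated-group measurement divided by that of the vehicle-treated control group.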

[1] = dose: 50.0 mg/kg/injection, schedule: Q01DX005 (ip), vehicle: saline with Tween-80
[2] = dose: 100.0 mg/kg/injection, schedule: Q01DX005 (ip), vehicle: saline with Tween-80
[3] = dose: 200.0 mg/kg/injection, schedule: Q01DX005 (ip), vehicle: saline with Tween-80
[4] = dose: 50.0 mg/kg/injection, schedule: Q01DX009 (ip), vehicle: saline with Tween-80
[5] = dose: 100.0 mg/kg/injection, schedule: Q01DX009 (ip), vehicle: saline with Tween-80
[6] = dose: 200.0 mg/kg/injection, schedule: Q01DX009 (ip), vehicle: saline with Tween-80
[7] = dose: 25.0 mg/kg/injection, schedule: Q01DX009 (ip), vehicle: saline with Tween-80
[8] = dose: 25.0 mg/kg/injection, schedule: Q01DX009 (ip), vehicle: Klucel (hydroxypropylcellulose) (HPC)
[9] = dose: 50.0 mg/kg/injection, schedule: Q01DX009 (ip), vehicle: Klucel (hydroxypropylcellulose) (HPC)
[10] = dose: 100.0 mg/kg/injection, schedule: Q01DX009 (ip), vehicle: Klucel (hydroxypropylcellulose) (HPC)
[11] = dose: 200.0 mg/kg/injection, schedule: Q01DX009 (ip), vehicle: Klucel (hydroxypropylcellulose) (HPC)
[12] = dose: 50.0 mg/kg/injection, schedule: Q01DX009 (ip), vehicle: saline
[13] = dose: 100.0 mg/kg/injection, schedule: Q01DX009 (ip), vehicle: saline

Measured: T/C

N#CC1C(=O)NN=C1c1cc2ccccc2oc1=O (centres undefined)
inactive: dose: 100.0 mg/kg/injection, schedule: Q01DX001 (ip), vehicle: saline 97 % of control | dose: 200.0 mg/kg/injection, schedule: Q01DX001 (ip), vehicle: saline 100 % of control | dose: 400.0 mg/kg/injection, schedule: Q01DX001 (ip), vehicle: saline 97 % of control

COc1ccc(C2(O)CC3CCC(C2)N3C)cc1 (centres undefined)
inactive: [1] 93 % of control | [2] 100 % of control | [3] 97 % of control

CC1=CC=CC(C)(C(Cl)Cl)C1=O (centres undefined)
inactive: [4] 109 % of control | [5] 104 % of control | [6] 109 % of control

c1ccc2c(c1)nnc1ccccc12
inactive: dose: 50.0 mg/kg/injection, schedule: Q01DX005 (ip), vehicle: Klucel + Tween-80 102 % of control | dose: 100.0 mg/kg/injection, schedule: Q01DX005 (ip), vehicle: Klucel + Tween-80 96 % of control | dose: 200.0 mg/kg/injection, schedule: Q01DX005 (ip), vehicle: Klucel + Tween-80 102 % of control

COc1cc2c(c(OC)c1OC)-c1cc3c(cc1C(OC(C)=O)C1COC(=O)C1C2)OCO3 (centres undefined)
inactive: dose: 0.5 mg/kg/injection, schedule: Q04DX002 (ip), vehicle: acetone 97 % of control and 104 % of control | dose: 1.0 mg/kg/injection, schedule: Q04DX002 (ip), vehicle: acetone 102 % of control and 94 % of control | dose: 2.0 mg/kg/injection, schedule: Q04DX002 (ip), vehicle: acetone 97 % of control and 104 % of control

Nc1cc(NC=O)ncn1
inactive: [7] 102 % of control | [4] 105 % of control | [5] 102 % of control

CNC(=O)OCC1=C(Sc2ccccc2)C(=O)C(OC)=C(OC)C1=O
inactive: dose: 12.5 mg/kg/injection, schedule: Q01DX005 (ip), vehicle: saline with Tween-80 106 % of control | dose: 25.0 mg/kg/injection, schedule: Q01DX005 (ip), vehicle: saline with Tween-80 108 % of control | [1] 103 % of control and 110 % of control

Cc1cn(CCCCCOc2c3ccoc3cc3oc(=O)ccc23)c(=O)[nH]c1=O
inactive: dose: 100.0 mg/kg/injection, schedule: Q01DX001 (ip), vehicle: Klucel (hydroxypropylcellulose) (HPC) 92 % of control | dose: 200.0 mg/kg/injection, schedule: Q01DX001 (ip), vehicle: Klucel (hydroxypropylcellulose) (HPC) 90 % of control | dose: 400.0 mg/kg/injection, schedule: Q01DX001 (ip), vehicle: Klucel (hydroxypropylcellulose) (HPC) 87 % of control

O=[N+]([O-])c1ccc(S/N=C\c2ccccc2)c([N+](=O)[O-])c1
inactive: [4] 97 % of control

CCOC(=O)/C(C#N)=C1/CCCN1C
inactive: dose: 100.0 mg/kg/injection, schedule: Q04DX003 (ip), vehicle: Klucel (hydroxypropylcellulose) (HPC) 107 % of control | dose: 200.0 mg/kg/injection, schedule: Q04DX003 (ip), vehicle: Klucel (hydroxypropylcellulose) (HPC) 109 % of control

CCOC(=O)/C=C/c1ccc(C(=O)OCC)[nH]1
inactive: [8] 101 % of control | [9] 100 % of control | [10] 107 % of control | [11] 97 % of control

CCCCCCCCCCCCCN1CCS(=O)(=O)CC1
inactive: [9] 98 % of control | [10] 94 % of control | [11] 89 % of control

CC1=CC2c3cccc4[nH]cc(c34)CC2N(C)C1 (centres undefined)
inactive: dose: 2.5 mg/kg/injection, schedule: Q01DX009 (ip), vehicle: saline 114 % of control and 116 % of control | dose: 5.0 mg/kg/injection, schedule: Q01DX009 (ip), vehicle: saline 117 % of control | dose: 10.0 mg/kg/injection, schedule: Q01DX009 (ip), vehicle: saline 116 % of control and 120 % of control

O=c1c(F)cn(-c2ccco2)c(=O)n1-c1ccco1
inactive: dose: 37.5 mg/kg/injection, schedule: Q04DX003 (ip), vehicle: saline + alcohol 103 % of control | dose: 75.0 mg/kg/injection, schedule: Q04DX003 (ip), vehicle: saline + alcohol 100 % of control | dose: 150.0 mg/kg/injection, schedule: Q04DX003 (ip), vehicle: saline + alcohol 96 % of control

COc1ccc2c(c1OC)C(C(C)=O)N1CCc3cc4c(cc3C1=C2)OCO4 (centres undefined)
inactive: dose: 0.63 mg/kg/injection, schedule: Q01DX009 (ip), vehicle: distilled water + Tween-80 106 % of control | dose: 1.25 mg/kg/injection, schedule: Q01DX009 (ip), vehicle: distilled water + Tween-80 101 % of control | dose: 2.5 mg/kg/injection, schedule: Q01DX009 (ip), vehicle: distilled water + Tween-80 99 % of control | dose: 5.0 mg/kg/injection, schedule: Q01DX009 (ip), vehicle: distilled water + Tween-80 96 % of control | dose: 10.0 mg/kg/injection, schedule: Q01DX009 (ip), vehicle: distilled water + Tween-80 101 % of control | dose: 20.0 mg/kg/injection, schedule: Q01DX009 (ip), vehicle: distilled water + Tween-80 101 % of control

COC(=O)C1CC2(C(=O)O)CC(C(=O)O)(CC(C(=O)OC)C2=O)C1=O (centres undefined)
inactive: dose: 50.0 mg/kg/injection, schedule: Q04DX003 (ip), vehicle: saline with Tween-80 101 % of control | dose: 100.0 mg/kg/injection, schedule: Q04DX003 (ip), vehicle: saline with Tween-80 101 % of control | dose: 200.0 mg/kg/injection, schedule: Q04DX003 (ip), vehicle: saline with Tween-80 104 % of control

FC(F)(F)c1ccc2c(c1)N=C(NNC1=Nc3cc(C(F)(F)F)ccc3SC1)CS2
inactive: dose: 15.0 mg/kg/injection, schedule: Q01DX005 (ip), vehicle: saline with Tween-80 91 % of control | dose: 30.0 mg/kg/injection, schedule: Q01DX005 (ip), vehicle: saline with Tween-80 86 % of control

Cc1ccc(-n2c(=O)nc([O-])[n+]3ccccc23)cc1
inactive: dose: 60.0 mg/kg/injection, schedule: Q01DX005 (ip), vehicle: Klucel (hydroxypropylcellulose) (HPC) 99 % of control | dose: 120.0 mg/kg/injection, schedule: Q01DX005 (ip), vehicle: Klucel (hydroxypropylcellulose) (HPC) 98 % of control | dose: 240.0 mg/kg/injection, schedule: Q01DX005 (ip), vehicle: Klucel (hydroxypropylcellulose) (HPC) 96 % of control

N#CC(C(=O)C(=O)Nc1cccc(C(F)(F)F)c1)c1cccc(Cl)c1 (centres undefined)
inactive: dose: 60.0 mg/kg/injection, schedule: Q01DX005 (ip), vehicle: saline with Tween-80 105 % of control | dose: 120.0 mg/kg/injection, schedule: Q01DX005 (ip), vehicle: saline with Tween-80 112 % of control | dose: 240.0 mg/kg/injection, schedule: Q01DX005 (ip), vehicle: saline with Tween-80 103 % of control

C(=C\c1cccs1)/c1ccnnc1
inactive: dose: 25.0 mg/kg/injection, schedule: Q01DX009 (ip), vehicle: saline 101 % of control | [12] 99 % of control | [13] 86 % of control and 96 % of control

Cn1cccc1[N+](=O)[O-]
inactive: dose: 12.5 mg/kg/injection, schedule: Q01DX009 (ip), vehicle: saline with Tween-80 100 % of control | [7] 101 % of control | [4] 100 % of control and 104 % of control | [5] 101 % of control | [6] 108 % of control

Nc1ncn[nH]1
inactive: [12] 99 % of control and 105 % of control | [13] 98 % of control and 97 % of control | dose: 200.0 mg/kg/injection, schedule: Q01DX009 (ip), vehicle: saline 100 % of control and 106 % of control | dose: 400.0 mg/kg/injection, schedule: Q01DX009 (ip), vehicle: saline 99 % of control

COP(=O)(CS(=O)(=O)Oc1ccc(S(C)(=O)=O)cc1)OC
inactive: dose: 3.12 mg/kg/injection, schedule: Q01DX005 (ip), vehicle: Klucel (hydroxypropylcellulose) (HPC) 97 % of control | dose: 6.25 mg/kg/injection, schedule: Q01DX005 (ip), vehicle: Klucel (hydroxypropylcellulose) (HPC) 100 % of control | dose: 12.5 mg/kg/injection, schedule: Q01DX005 (ip), vehicle: Klucel (hydroxypropylcellulose) (HPC) 99 % of control | dose: 25.0 mg/kg/injection, schedule: Q01DX005 (ip), vehicle: Klucel (hydroxypropylcellulose) (HPC) 97 % of control

CCC1C(OC)=CC(CC)(C(=O)OC)C=C1OC (centres undefined)
inactive: [1] 100 % of control | [2] 107 % of control | [3] 107 % of control

CC1C2C1C1C3NN=CC3C2n2c(=O)n(-c3ccccc3)c(=O)n21 (centres undefined)
inactive: dose: 50.0 mg/kg/injection, schedule: Q01DX005 (ip), vehicle: Klucel (hydroxypropylcellulose) (HPC) 99 % of control | dose: 100.0 mg/kg/injection, schedule: Q01DX005 (ip), vehicle: Klucel (hydroxypropylcellulose) (HPC) 100 % of control | dose: 200.0 mg/kg/injection, schedule: Q01DX005 (ip), vehicle: Klucel (hydroxypropylcellulose) (HPC) 105 % of control

O=S1(=O)C2C=CC1C(Br)C(Br)CC2 (centres undefined)
inactive: dose: 12.5 mg/kg/injection, schedule: Q01DX009 (ip), vehicle: Klucel (hydroxypropylcellulose) (HPC) 102 % of control | [8] 100 % of control | [9] 89 % of control | [10] 96 % of control | [11] 98 % of control
